The text below walks through data of US12239652B2, “Composition for preventing or treating muscular diseases, or for improving muscular functions, containing ganglioside” (INDUSTRY-ACADEMIC COOPERATION FOUNDATION, YONSEI UNIVERSITY, priority 2018, dated 2025).

One assay concerns mTOR. The assay is described as follows: mTOR Sandwich ELISA in L6 myotubes (activity for myogenic induction). It counts as cell-based. The settings on record: 1 μM or 5 μM, 12-h culture, *P<0.05. As to the method: The mTOR protein is known to induce the activation of proteins involved in muscle protein synthesis and an increase in muscle mass in the PI3K/Akt signaling pathway in muscle cells when phosphorylated and activated. Thus, the activity of mTOR was confirmed using an mTOR Sandwich ELISA kit (Cell Signaling Technology, Beverly, MA, USA) to determine the activity of ganglioside GM3 for myogenic induction.
L6 myoblasts (ATCC; Manassas, VA, USA) were seeded with Dulbecco's modified Eagle's media (DMEM; Hyclone) supplemented with 10% fetal bovine serum (FBS; Hyclone, Logan, UT, USA) in a 6-well plate at a density of 1×10^5 cells/well, followed by culture for 24 h. The media in the wells were replaced with DMEM (Hyclone) supplemented with 2% horse serum (HS; Hyclone), followed by culture for additional 6 days to differentiate the L6 cells into myotubes. Then, cells were treated with ganglioside GM3 (Cayman, Ann Arbor, MI, USA) at a concentration of 1 μM or 5 μM. After 12-h culture, cells were lysed by treatment with a cell lysis buffer. Proteins in the cell lysate were quantified by the Bradford method (Bio-Rad Laboratories Inc., Hercules, CA, USA) and the concentration of the cell lysate was then adjusted to 1 mg/mL. The cell lysate was plated in microwells bound with anti-mTOR antibody (50 μL/well) and cultured at 37° C. for 2 h. Cells were washed a total of 4 times with a washing buffer, treated with a detection antibody, and cultured at 37° C. for 1 h, rewashed a total of 4 times with a washing buffer, added with a horseradish peroxidase (HRP)-conjugated secondary antibody, and cultured at 37° C. for 30 min. Finally, after washing a total of 4 times with a washing buffer, TMB substrate was added to each well. After culture at 37° C. for 10 min, a stop solution was added to stop the TMB reaction. 2 min later, absorbance was measured at a wavelength of 450 nm to determine the level of mTOR in the myotubes treated with ganglioside GM3.
The procedure of Example 1 was repeated except that cells were treated with ganglioside GM1 (Cayman) at a concentration of 15 μM or 25 μM to examine the activity of the ganglioside for myogenic induction.
The procedure of Example 1 was repeated except that cells were treated with ganglioside GD1a (Cayman) at a concentration of 1 μM or 3 μM to examine the activity of the ganglioside for myogenic induction.
The procedure of Example 1 was repeated except that cells were treated with each of gangliosides GT1b and GQ1b (Cayman) at a concentration of 1 μM to examine the activity of the ganglioside for myogenic induction.

The next assay relates to p-mTOR. The assay is described as follows: Western blot of mRNA translation biomarkers in TNF-α-treated L6 myotubes: p-mTOR. It counts as cell-based. To be noted: 50 ng/mL TNF-α, 1 μM or 5 μM. On the procedure: (§1) L6 myoblasts (ATCC) were seeded with DMEM (Hyclone) supplemented with 10% FBS (Hyclone) in a 6-well plate at a density of 1×10^5 cells/well, followed by culture. When the cultured cells reached a confluency of ˜80-85% per well, the media in the wells were replaced with DMEM (Hyclone) supplemented with 2% HS (Hyclone), followed by culture for additional 6 days to induce differentiation into myotubes. During culture for 6 days, the culture media were changed once every other day a total of 3 times. […] A group treated with 0.01% DMSO instead of the sample was used as a control. Cells were lysed with NP-40 buffer (ELPIS-Biotech, Daej eon, Korea) with a protease inhibitor cocktail (Sigma-Aldrich, St. Louis, MO, USA) and centrifuged at 13,000 rpm for 10 min. The cell lysate was obtained from the supernatant. The concentration of proteins in the supernatant was determined by the Bradford method (Bio-Rad Laboratories Inc.). Proteins at a certain concentration were heated for 5 min and separated by SDS-PAGE electrophoresis. The separated proteins were transferred to nitrocellulose membranes. Then, p-mTOR, mTOR, p-p70S6K, p70S6K, p-4EBP1, 4EBP1, and alpha-tubulin primary antibodies (Cell signaling technology, Beverly, MA, USA) were diluted at a ratio of 1:1000 with 2.5% bovine serum albumin (BSA; Bioworld, Dubin, OH, USA) and incubated with the proteins transferred to the nitrocellulose membranes at room temperature for 20 h. After incubation of the primary antibodies, the nitrocellulose membranes were washed 3 times with Tris-buffer saline Tween 20 (TBST) for 10 min. After washing, an anti-rabbit secondary antibody (Bethyl Laboratories, Inc., Montgomery, TA, USA) conjugated with horseradish peroxidase recognizing the primary antibodies was diluted 1:5000 with 2.5% BSA (Bioworld) and incubated with the nitrocellulose membranes at room temperature for 2 h. […]
(§2) Protein bands detected through antibody binding were developed using an ECL western blot detection reagent (Amersham, Tokyo, Japan) and visualized using a G;BOX EF imaging system (Syngene, Cambridge, UK). […]

A further assay relates to p-p70S6K. The assay is described as follows: Western blot of mRNA translation biomarkers in TNF-α-treated L6 myotubes: p-p70S6K. The assay is classed as cell-based. To be noted: 50 ng/mL TNF-α, 1 μM or 5 μM. As to the method:
as §1, §2
On the technique in general: Immunoblotting shows a protein as a band on a membrane.

Another assay relates to p-4EBP1. Put plainly: Western blot of mRNA translation biomarkers in TNF-α-treated L6 myotubes: p-4EBP1. It counts as cell-based. The settings on record: 50 ng/mL TNF-α, 1 μM or 5 μM. As to the method:
as §1, §2

A further assay relates to atrogin-1. The assay is described as follows: RT-PCR of muscle degrading protein mRNA in TNF-α-treated L6 myotubes: atrogin-1. The settings on record: 50 ng/mL TNF-α, 1 μM or 5 μM. It counts as cell-based. As to the method:
(§3) L6 myoblasts (ATCC) were seeded with DMEM (Hyclone) supplemented with 10% FBS (Hyclone) in a 6-well plate at a density of 1×10^5 cells/well, followed by culture. When the cultured cells reached a confluency of ˜80-85% per well, the media in the wells were replaced with DMEM (Hyclone) supplemented with 2% HS (Hyclone), followed by culture for additional 6 days to induce differentiation into myotubes. During culture for 6 days, the culture media were changed once every other day a total of 3 times. The differentiation-induced cells were harvested and the cell media were replaced with DMEM supplemented with 50 ng/mL TNF-α (PeproTech) in which ganglioside GM3 (Cayman) was dissolved at a concentration of 1 μM or 5 μM. A group treated with 0.01% DMSO instead of the sample was used as a control. Total RNA was isolated from cells using TRIzol reagent (Takara, Kyoto, Japan). The isolated total RNA was quantified using NanoDrop 1000 (Thermo Fisher Scientific Inc., Waltham, MA, USA). 16 μL of the RNA was synthesized into cDNA using Reverse Transcriptase Premix (ELPIS-Biotech) and a PCR system (Gene Amp PCR System 2700; Applied Biosystems, Foster City, CA, USA) at 42° C. for 55 min and 70° C. for 15 min. 3 μL of the synthesized cDNA, the specific primers shown in Table 1 (Bioneer, Daej eon, Korea), and PCR premix (ELPIS-Biotech) were mixed and PCR was repeated 30 times at 95° C. for 30 sec, 60° C. for 1 min, and 72° C. for 1 min. After PCR amplification, cDNA was separated by electrophoresis on a 1.5% agarose gel and the cDNA bands were visualized using a G;BOX EF imaging system (Syngene).
(§4) The procedure of Example 8 was repeated except that cells were treated with ganglioside GM1 (Cayman) at a concentration of 15 μM or 25 μM to investigate the mRNA transcription and expression levels of atrogin-1 and MuRF1 as muscle degrading proteins.
(§5) The procedure of Example 8 was repeated except that cells were treated with ganglioside GD1a (Cayman) at a concentration of 1 μM or 3 μM to investigate the mRNA transcription and expression levels of atrogin-1 and MuRF1 as muscle protein degradation-related enzymes.
(§6) The procedure of Example 8 was repeated except that cells were treated with each of gangliosides GT1b and GQ1b (Cayman) at a concentration of 1 μM to investigate the mRNA transcription and expression levels of atrogin-1 and MuRF1 as muscle protein degradation-related enzymes.

The test system of the next assay is MuRF1. Put plainly: RT-PCR of muscle degrading protein mRNA in TNF-α-treated L6 myotubes: MuRF1. The assay is classed as cell-based. To be noted: 50 ng/mL TNF-α, 1 μM or 5 μM. As to the method:
as §3, §4, §5, §6

A further assay deals with Wistar rats. Put plainly: Muscle mass (soleus weight) in TNF-α-induced muscular atrophy animal model. The assay is classed as in vivo. To be noted: 50 mg/kg body weight once a day for 8 weeks. As to the method: Wistar rats, aged five weeks, were acclimatized for one week and supplied with 100 ng/g of TNF-α for 2 weeks to induce muscular atrophy. The animals were randomly divided into a total of 5 groups, 8 animals per group, depending on their weight. Each of gangliosides GM3, GM1, GD1a, GT1b, and GQ1b (each 50 mg/kg body weight) as experimental groups was suspended in 0.25% carboxymethylcellulose. The suspension was administered at a given time once a day for 8 weeks. A group administered the same amounts of 0.25% carboxymethyl cellulose and TNF-α ingested by each experimental group was used as a control.
After administration of the sample for 8 weeks, the right soleus was dissected and its weight was measured with a microbalance (Mettler PE160, USA).

Consider `CCCCCCCCCCCCC/C=C/[C@@H](O)[C@H](CO[C@@H]1OC(CO)[C@@H](O[C@@H]2OC(CO)[C@@H](O)C(O[C@]3(C(=O)O)CC(O)[C@@H](NC(C)=O)C([C@@H](O)[C@H](O)CO)O3)C2O)C(O)C1O)NC(=O)CCCCCCCCCCCCCCCCC` (some centres unmarked) [Ganglioside GM3, ganglioside GM3], for which, in the assay on mTOR, the “activity of mTOR in L6 muscle cells” value was “significantly increased”. In addition, the “expression level of phosphorylated p-mTOR in L6 muscle cells” value in the assay on p-mTOR is on record as “increased”. Further, the “expression level of phosphorylated p-P70S6K in L6 muscle cells” value in the assay on p-p70S6K was “increased”. For the same molecule, the “expression level of phosphorylated p-4EBP1 in L6 muscle cells” value with p-4EBP1 is reported as “increased”. The “mRNA expression level of atrogin-1 in L6 muscle cells” value in the assay on atrogin-1 is on record as “reduced”. Besides, the “mRNA expression level of MuRF1 in L6 muscle cells” value in the assay on MuRF1 is “reduced”. For the same molecule, the “increase of muscle (soleus) weight compared to the control group” value with Wistar rats is recorded as 23.56%. In the assay with Wistar rats (right soleus, control 416.0 ± 19.57), this molecule yielded an Average soleus weight of 514.0 ± 18.4 mg.
